# Literature values as cited in patent publication US20090018199A1, “Methods of Administering 3, 3, 14, 14 Tetramethyl Hexadecane 1, 16 Dioic Acid” (SYNDROME X LTD., priority 2003, published 2009).
# Tested on: patients
# Details: follow-up 15 years total, patients randomized to niacin
smiles,measurement,value
"O=C(O)c1cccnc1 [Niacin, niacin]",decrease in all-cause mortality,11%
